Source: PMC3804352 (ACS medicinal chemistry letters, 2013)
“Also recorded” adds a separate entry of the source. Where two headings read alike, the source gives them in different places.

What was measured:
[1] = Stability in mouse serum at 37 °C; format: in vitro ADME
[2] = Metabolism by human liver microsomes; format: in vitro ADME
[3] = In vivo pharmacokinetic study, single IV or IP injection to healthy mice
[4] = Metabolism by human liver S9 fraction; format: in vitro ADME
[5] = format: in vivo, mice; conditions: at the termination of efficacy trials
[6] = Stability in human liver cytosolic fraction; format: in vitro ADME; conditions: r^2 = 0.24, p = 0.10
[7] = Solubility in aqueous buffers; format: physicochemical
human cancer cells = conditions: cited from earlier work
Plasmodium yoelii = experiment: In vivo efficacy in mice infected with Plasmodium yoelii, parasite load by FACS; set-up: species or system Swiss webster female mice
mice = experiment: Toxicity to mice in efficacy and PK studies; format: in vivo; conditions: dosing regime of efficacy study (5-10 mg/kg once daily) and PK study
[8] = in vivo, iv; cited from earlier work
P. falciparum = conditions: read-out: in vitro IC50; cited from earlier work
parasitemia = conditions: cited from earlier work
[9] = cited from earlier work
[10] = in mice; cited from earlier work

With `CC1=C2Cc3cc(ccc3O)C(=O)O[C@H](C(C)(C)Br)CC[C@](C)(O)[C@H](Br)CC[C@]2(C)[C@@H](Br)CC1` [compound 1, bromophycolide A] the “loss after incubation in mouse serum” value ([1]; 37 °C, 24 h (r^2 = 0.20, p=0.27)) was “no significant loss”, the “stability in mouse serum” value ([1]; over 24 h) was “stable” and the CLint scaled at 24 h, 10 µM ([2]; human, human liver microsomes) was 0.096 ± 0.03 L/h/kg. For the same compound, the “stability in the presence of human microsomes” value ([2]; summary statement) was “moderately stable”, the bioavailability ([3]; IP vs IV dosing) was “good bioavailability” and the “Cp^0” value ([3]; IV, 23 mg/kg, plasma) was 24 ± 6 µg/mL. For the same compound, the “metabolism by human liver sub-cellular fractions” value ([4]; after 4 h) was “negligible metabolism”, the half-life ([4]; human, human liver S9 fraction) was 9.5 ± 0.8 h and the CLint scaled at 24 h, 10 µM ([4]; human, human liver S9 fraction, CLint, S9 fraction with UDPGA) was 0.066 ± 0.006 L/h/kg. For the same compound, the “concentration in blood and plasma of infected mice” value [5] was “below the limit of detection”, the “stability in the presence of the human liver cytosolic fraction” value [6] was “stable” and the “solubility in aqueous buffers” value [7] was “poor solubility”. The “differential selectivity among eukaryotic cell lines” value (human cancer cells) was 10 fold, the IC50 (human cancer cells; human cancer cells) was over 6 µM and the “parasitemia in treated mice” value (Plasmodium yoelii; after the second dose, 10 mg/kg) was 10.0 ± 0.5%. For the same compound, the “final parasitemia (FACS)” value (Plasmodium yoelii; dosed at 10 mg/kg, control 32 ± 2 %) was 17 ± 4% and the toxicity to mice (mice) was “lack of mouse toxicity; also recorded: non-toxic”.

For `C[C@H]1[C@H](OC(=O)CCC(=O)O)O[C@@H]2O[C@@]3(C)CC[C@H]4[C@H](C)CC[C@@H]1[C@@]24OO3` [artesunate], the half-life [8] is given as “less than 10 min”.

For `CC[C@H](C)C(=O)O[C@@H]1[C@H]2C(C)=CC(=O)[C@@H](O)[C@]2(C)[C@H]2[C@@H](O)[C@H](O)[C@@]3(C)OC[C@@]24[C@@H]1OC(=O)[C@H](OC(=O)[C@@H](C)CC)[C@@H]34` [simalikalactone E], the IC50 (P. falciparum) is listed as 0.024 to 0.068 µM, the “reduction of parasitemia in vivo” value (parasitemia; 0.5 mg/kg IP dosing) is listed as 50% and the “reduction of parasitemia in vivo” value (parasitemia; 1 mg/kg oral dosing) is listed as 50%.

In the case of `CCN(CC)CCCC(C)Nc1ccnc2cc(Cl)ccc12` (centres unmarked) [chloroquine], the “apparent volume of distribution” value [9] is given as 200 L/kg.

In the case of `C[C@H]1Cc2c([nH]c3cc(Cl)c(F)cc23)[C@@]2(N1)C(=O)Nc1ccc(Cl)cc12` [NITD609, spirotetrahydro-β-carboline NITD609], the clearance rate [10] is listed as 0.588 L/h/kg.
